Data from article PMC9014634 (Journal of Pharmacological Sciences, 2022).

Test: in vitro
Format: cell-based
Conditions: human

SMILES	CC50 [µM]
C[C@]12C=CC(=O)C=C1CC[C@@H]1[C@@H]2[C@@H](O)C[C@@]2(C)[C@H]1C[C@H]1O[C@@H](C3CCCCC3)O[C@]12C(=O)CO [Cic2, desisobutyryl ciclesonide]	> 30
CC(C)C(=O)OCC(=O)[C@@]12O[C@H](C3CCCCC3)O[C@@H]1C[C@H]1[C@@H]3CCC4=CC(=O)C=C[C@]4(C)[C@H]3[C@@H](O)C[C@@]12C [Cic, Ciclesonide]	> 30
